Measured values from publication PMC8118404, “Synergistic effect of the anti-PD-1 antibody with blood stable and reduction sensitive curcumin micelles on colon cancer” (Drug Delivery, 2021).

Tests used:
p-MEK1/2 and p-Erk1/2 = assay: Western blot assay of p-MEK1/2 and p-Erk1/2 in MC-38 cells; type: cell-based, Murine; conditions: 10 h
Procedure: MC38 cells were lysed using whole protein extraction kit (KeyGEN BioTECH, Nanjing, China, KGP250). Protein concentration was determined using bicinchoninic acid (BCA) protein assay (KeyGEN BioTECH, Nanjing, China, KGPBCA). Protein extracts were electrophoresed in 10% SDS-PAGE and transferred to a nitrocellulose filter (NC) membrane, blocked by 5% skim milk at room temperature for 1 h, which was prepared in Tris-buffered saline with tween 20 (TBST). Then, the membranes were immunoblotted by primary antibodies. For detection, HRP-conjugated secondary antibodies (Ray Antibody Biotech, Beijing, China, RM2001L) and chemiluminescent HRP substrate kit (EpiZyme, Shanghai, China, SQ2O2) were used. As the molecular weight of the target bands is similar, the western blot fast stripping buffer (EpiZyme, Shanghai, China, PS107) was used. The following primary antibodies were used: anti-p-MEK1/2 (Cell Signaling Technology (CST), 41G9, Boston, MA), anti-p-Erk1/2 (CST, 197G2). The blots were quantified using ImageJ (National Institutes of Health, Bethesda, MD) and normalized to the control group.

MC-38 cells = assay: In vitro cytotoxicity, CCK-8 assay; type: cell-based, Murine; conditions: Mus musculus, 72 h, curcumin concentration
Procedure: The cytotoxicity of s-Cur, Cur/NCMs, and Cur/DCMs against MC-38 cells was determined by a CCK-8 assay. Briefly, MC-38 cells were cultured in RPMI1640 medium with 10% FBS, penicillin (100 U/mL), and streptomycin (100 µg/mL) for 24 h. Then, the cells were seeded in 96-well plates (Corning, NY) at 10,000 cells/well in 100 µL medium. After incubation for 24 h, the cells were exposed to s-Cur and equivalent amount of Cur/NCMs and Cur/DCMs to yield final curcumin concentrations from 0 to 65 µg/mL. For GSH triggered release experiments, adherent cells were incubated with 10 mM glutathione monoethyl ester (GSH-OEt) for 2 h before exposure to the curcumin formulations.
After incubation for 72 h, 10 μL CCK8 solution with 100 μL growth medium was added into each well and the cells were incubated for another 1 h. Then, the culture medium was added with 10 μL 1% SDS (dissolve 0.1 g SDS with PBS to obtain 10 mL solution) to stop the reaction, and reading on a Synergy HTX multi-mode reader (BioTek, Winooski, VT) at 450 nm. The cytotoxicity assay was performed in triplicate and the cell viability (%) was calculated with the following equation: (3) Cell viability=At−AB/Ac−AB×100% where At is the absorption value of samples, Ac is the absorption value of the control group, and AB is the absorption value of the blank group. […]

MC-38 colon tumor = system: MC-38 colon tumor; set-up: method as in our previous research (data not shown); conditions: in vivo; ref our previous research (data not shown); cited from earlier work
[1] = In vitro release of curcumin by dynamic dialysis method; type: physicochemical; conditions: 20% SDS release medium, 37 °C
Procedure: In order to evaluate the crosslinking effect, in vitro release profiles of curcumin from DMSO (s-Cur), Cur/NCMs, and Cur/DCMs were studied by dynamic dialysis method with 20% SDS solution as release medium. Lyophilized micelles were reconstituted and diluted to 1 mg/mL of curcumin with PBS (0.1 M, pH 7.4) then placed 1 mL into dialysis tube (MWCO 8000–14,000 Da). The tubes were dialyzed against 50 mL release medium at 37 ± 0.5 °C at a stirring speed of 100 rpm with or without 10 mM GSH. At predetermined time intervals, 1 mL of release medium was withdrawn and replenished with an equal volume of the fresh medium. The amount of curcumin released was determined by HPLC analysis as mentioned above. Cumulative release of curcumin was then calculated. The in vitro release studies were carried out in triplicate.

[2] = Pharmacokinetics after i.v. administration in SD rats; type: in vivo; conditions: Sprague-Dawley, rat, plasma, iv
Procedure: Nine SD rats were randomly divided into three groups (three rats for each group), receiving s-Cur, Cur/NCMs, and Cur/DCMs. Following the intravenous (i.v.) administration of the three curcumin formulations (20 mg/kg), 0.1 mL of the blood samples was collected from the tail vein at predetermined time intervals. The blood samples were centrifuged for 6 min at 5867×g to obtain the plasma. Then, the curcumin concentrations in the plasma were analyzed using a liquid chromatography mass spectrometer (LCMS-2020) equipped with a Shimadzu UV-visible spectrophotometer (Columbia, MD). The detection limitation of the equipment was 1 ng/mL. We employed the non-compartmental analysis in WinNonlin software V6.2.1 to calculate major pharmacokinetic parameters.

## COc1cc(C=CC(=O)CC(=O)C=Cc2ccc(O)c(OC)c2)ccc1O [s-Cur, 1,7-bis(4-hydroxy-3-methoxyphenyl)-1,6-heptadiene-3,5-dione]
p-MEK1/2 and p-Erk1/2
  expression of the proliferative marker proteins p-MEK1/2 and p-ERK1/2: significantly low expression
MC-38 cells
  IC50: 13.7 µg/mL
MC-38 colon tumor
  enhancement of the antitumor effects of anti-PD-1: not to be able to significantly enhance the antitumor effects of anti-PD-1
[1]; at 24 h
  curcumin released: 75%
[1]; within the first 8 h
  curcumin released: About 60%
[2]; i.v. 20 mg/kg, after 12 h (detection limit), read-out: plasma curcumin level
  concentration at 12 h: < 1 ng/mL
[2]; i.v. 20 mg/kg, within 30 min, read-out: plasma curcumin level
  concentration at 30 min: < 100 ng/mL
[2]; single dosage 20 mg/kg
  AUC(0-inf): 1970 ng·h/mL
  AUC(0-t): 1960 ng·h/mL
  Cmax: 7120 ng/mL
  half-life: 83.4 min
[2]; single dosage 20 mg/kg, read-out: CLz (converted)
  clearance: 170 mL/min/kg
[2]; single dosage 20 mg/kg, read-out: MRT(0–t)
  MRT last: 9 min
[2]; single dosage 20 mg/kg, read-out: MRT(0–∞)
  MRT inf: 9.6 min
[2]; single dosage 20 mg/kg, read-out: Vz
  Vd: 20.4 L/kg
